The values below are quoted from earlier work in paper PMC10535842, “Novel Thiazole-Based SIRT2 Inhibitors Discovered via Molecular Modelling Studies and Enzymatic Assays” (Pharmaceuticals, 2023).

“And” between values parts separate entries of the source, which are not always exact repeats. Identical values can stand only once.

The test system of this series is SIRT2. Particulars: substrate RHKK(Ac)-AMC; read-out: SIRT2 IC50 (series B, compounds 27-111); cited from earlier work.
The IC50 is the concentration that inhibits the measured activity by half. Turning to `COc1ccc2ccccc2c1Cn1cnc2sc3c(c2c1=O)CCC(NCc1ccco1)C3` (centres unmarked) [Compound 27], the IC50 was 5.24 µM.
Regarding `O=c1c2c3c(sc2ncn1Cc1cccc2ccccc12)CC(NCc1ccco1)CC3` (centres unmarked) [Compound 28], the IC50 was 7.61 µM.
On to `O=c1c2c3c(sc2ncn1Cc1ccc2ccccc2c1)CC(NCc1ccco1)CC3` (centres unmarked) [Compound 29], for which the concentration for half-maximal inhibition (IC50) was 11.7 µM.
In the case of `O=c1c2c3c(sc2ncn1Cc1cccc2cccnc12)CC(NCc1ccco1)CC3` (centres unmarked) [Compound 30], the IC50 was 4.16 µM.
Regarding `COc1ccc2ccccc2c1Cn1cnc2sc3c(c2c1=O)CCC(NCc1c(C)nn(C)c1C)C3` (centres unmarked) [Compound 31], the IC50 was 5.11 µM.
Consider `Cc1nn(C)c(C)c1CNC1CCc2c(sc3ncn(Cc4cccc5ccccc45)c(=O)c23)C1` (centres unmarked) [Compound 32], for which the 50% inhibitory concentration (IC50) is 4.2 µM.
For `Cc1nn(C)c(C)c1CNC1CCc2c(sc3ncn(Cc4ccc5ccccc5c4)c(=O)c23)C1` (centres unmarked) [Compound 33], the 50% inhibitory concentration (IC50) is 7.43 µM.
With `COc1ccc2ccccc2c1Cn1cnc2sc3c(c2c1=O)CCC(NCc1c(C)noc1C)C3` (centres unmarked) [Compound 34], the IC50 was 4 µM.
In the case of `Cc1noc(C)c1CNC1CCc2c(sc3ncn(Cc4cccc5ccccc45)c(=O)c23)C1` (centres unmarked) [Compound 35], the IC50 was 1.85 µM.
Take `COc1ccc(Cn2cnc3sc4c(c3c2=O)CCC(NCc2c(C)noc2C)C4)c2ccccc12` (centres unmarked) [Compound 36]: the IC50 was less than 1 µM.
For `Cc1noc(C)c1CNC1CCc2c(sc3ncn(Cc4cccc5cccnc45)c(=O)c23)C1` (centres unmarked) [Compound 37], the IC50 is 6.94 µM.
As to `COc1ccc2ccccc2c1Cn1cnc2sc3c(c2c1=O)CCC(NCc1cccs1)C3` (centres unmarked) [Compound 38], the IC50 is 6.03 µM.
In the case of `O=c1c2c3c(sc2ncn1Cc1cccc2cccnc12)CC(NCc1cccs1)CC3` (centres unmarked) [Compound 39], the IC50 was 2.56 µM.
As to `COc1ccc2ccccc2c1Cn1cnc2sc3c(c2c1=O)CCC(NCc1ccccc1)C3` (centres unmarked) [Compound 40], the IC50 is 21.1 µM.
`O=c1c2c3c(sc2ncn1Cc1ccc2ccccc2c1)CC(NCc1ccccc1)CC3` (centres unmarked) [Compound 41]: the IC50 was 5.45 µM.
Turning to `O=c1c2c3c(sc2ncn1Cc1cccc2cccnc12)CC(NCc1ccccc1)CC3` (centres unmarked) [Compound 42], the IC50 is 2.5 µM.
On to `COc1ccccc1Cn1cnc2sc3c(c2c1=O)CCC(NCc1ccccc1)C3` (centres unmarked) [Compound 43], for which the IC50 was 10.4 µM.
Take `COc1ccc2ccccc2c1Cn1cnc2sc3c(c2c1=O)CCC(NCc1cccc(F)c1)C3` (centres unmarked) [Compound 44]: the half-inhibitory concentration (IC50) is 4.07 µM.
Turning to `O=c1c2c3c(sc2ncn1Cc1cccc2cccnc12)CC(NCc1cccc(F)c1)CC3` (centres unmarked) [Compound 45], the IC50 is 1.72 µM.
For the compound `O=c1c2c3c(sc2ncn1Cc1cccc2cccnc12)CC(NCc1cccc(Cl)c1)CC3` (centres unmarked) [Compound 46], the IC50 is 2.84 µM.
For the compound `O=c1c2c3c(sc2ncn1Cc1cccc2cccnc12)CC(NCc1ccc(Cl)cc1)CC3` (centres unmarked) [Compound 47], the 50% inhibitory concentration (IC50) is 1.27 µM.
Regarding `O=c1c2c3c(sc2ncn1Cc1cccc2cccnc12)CC(NCc1ccccc1Cl)CC3` (centres unmarked) [Compound 48], the IC50 is 3.8 µM.
`COc1ccccc1CNC1CCc2c(sc3ncn(Cc4c(OC)ccc5ccccc45)c(=O)c23)C1` (centres unmarked) [Compound 50]: the IC50 is 2.24 µM.
Consider `COc1ccccc1CNC1CCc2c(sc3ncn(Cc4ccc5ccccc5c4)c(=O)c23)C1` (centres unmarked) [Compound 51], for which the IC50 was 4.22 µM.
Consider `COc1ccccc1CNC1CCc2c(sc3ncn(Cc4cccc5cccnc45)c(=O)c23)C1` (centres unmarked) [Compound 52], for which the 50% inhibitory concentration (IC50) was 5.61 µM.
Consider `COc1ccccc1CNC1CCc2c(sc3ncn(Cc4ccccc4OC)c(=O)c23)C1` (centres unmarked) [Compound 53], for which the IC50 was 9.59 µM.
Turning to `COc1cccc(CNC2CCc3c(sc4ncn(Cc5c(OC)ccc6ccccc56)c(=O)c34)C2)c1` (centres unmarked) [Compound 54], the IC50 is 1.9 µM.
Regarding `COc1cccc(CNC2CCc3c(sc4ncn(Cc5ccccc5OC)c(=O)c34)C2)c1` (centres unmarked) [Compound 55], the IC50 was 13.4 µM.
As to `COc1ccc(CNC2CCc3c(sc4ncn(Cc5c(OC)ccc6ccccc56)c(=O)c34)C2)cc1` (centres unmarked) [Compound 56], the IC50 is < 1 µM and 0.65 µM.
`COc1ccc(CNC2CCc3c(sc4ncn(Cc5cccc6ccccc56)c(=O)c34)C2)cc1` (centres unmarked) [Compound 57]: the IC50 was 3.2 µM.
For the compound `COc1ccc(CNC2CCc3c(sc4ncn(Cc5ccc6ccccc6c5)c(=O)c34)C2)cc1` (centres unmarked) [Compound 58], the IC50 is 3.82 µM.
For the compound `COc1ccc(CNC2CCc3c(sc4ncn(Cc5cccc6cccnc56)c(=O)c34)C2)cc1` (centres unmarked) [Compound 59], the IC50 was 1.83 µM.
With `COc1ccc(NC2CCc3c(sc4ncn(Cc5cccc6cccnc56)c(=O)c34)C2)cc1` (centres unmarked) [Compound 60], the half-maximal inhibitory concentration (IC50) is 2.48 µM.
`Cc1ccc(NC2CCc3c(sc4ncn(Cc5cccc6cccnc56)c(=O)c34)C2)cc1` (centres unmarked) [Compound 61]: the 50% inhibitory concentration (IC50) is 4.25 µM.
For `O=c1c2c3c(sc2ncn1Cc1cccc2cccnc12)CC(Nc1ccc(F)cc1)CC3` (centres unmarked) [Compound 62], the IC50 is < 1 µM and 0.97 µM.
As for `COc1ccc2ccccc2c1Cn1cnc2sc3c(c2c1=O)CCC(NCc1cccnc1)C3` (centres unmarked) [Compound 63], the IC50 was 1.45 µM.
With `O=c1c2c3c(sc2ncn1Cc1cccc2ccccc12)CC(NCc1cccnc1)CC3` (centres unmarked) [Compound 64], the concentration for half-maximal inhibition (IC50) is 2.99 µM.
As to `O=c1c2c3c(sc2ncn1Cc1cccc2cccnc12)CC(NCc1cccnc1)CC3` (centres unmarked) [Compound 65], the IC50 is 2.92 µM.
Consider `COc1ccc2ccccc2c1Cn1cnc2sc3c(c2c1=O)CCC(NCc1ccncc1)C3` (centres unmarked) [Compound 66], for which the IC50 was 1.2 µM.
With `O=c1c2c3c(sc2ncn1Cc1cccc2ccccc12)CC(NCc1ccncc1)CC3` (centres unmarked) [Compound 67], the IC50 was 3.58 µM.
As for `O=c1c2c3c(sc2ncn1Cc1ccc2ccccc2c1)CC(NCc1ccncc1)CC3` (centres unmarked) [Compound 68], the IC50 is 3.14 µM.
In the case of `O=c1c2c3c(sc2ncn1Cc1cccc2cccnc12)CC(NCc1ccncc1)CC3` (centres unmarked) [Compound 69], the IC50 was 3.68 µM.
As for `COc1ccc2ccccc2c1Cn1cnc2sc3c(c2c1=O)CCC(NCc1ccccn1)C3` (centres unmarked) [Compound 70], the IC50 is 3.12 µM.
`O=c1c2c3c(sc2ncn1Cc1cccc2ccccc12)CC(NCc1ccccn1)CC3` (centres unmarked) [Compound 71]: the IC50 was 7.68 µM.
On to `O=c1c2c3c(sc2ncn1Cc1ccc2ccccc2c1)CC(NCc1ccccn1)CC3` (centres unmarked) [Compound 72], for which the IC50 is 8.67 µM.
`O=c1c2c3c(sc2ncn1Cc1cccc2cccnc12)CC(NCc1ccccn1)CC3` (centres unmarked) [Compound 73]: the IC50 was 2.61 µM.
For the compound `COc1ccc(CNC2CCc3c(sc4ncn(Cc5c(OC)ccc6ccccc56)c(=O)c34)C2)cn1` (centres unmarked) [Compound 74], the IC50 was 1.9 µM.
As to `COc1ccc(CNC2CCc3c(sc4ncn(Cc5cccc6ccccc56)c(=O)c34)C2)cn1` (centres unmarked) [Compound 75], the IC50 is 7.59 µM.
Turning to `COc1ccc(CNC2CCc3c(sc4ncn(Cc5ccc6ccccc6c5)c(=O)c34)C2)cn1` (centres unmarked) [Compound 76], the IC50 was 10.2 µM.
With `COc1ccc(CNC2CCc3c(sc4ncn(Cc5cccc6cccnc56)c(=O)c34)C2)cn1` (centres unmarked) [Compound 77], the IC50 is 2.65 µM.
For the compound `COc1ccc2ccccc2c1Cn1cnc2sc3c(c2c1=O)CCC(NCCc1cccnc1)C3` (centres unmarked) [Compound 78], the IC50 is 10.3 µM.
Take `O=c1c2c3c(sc2ncn1Cc1cccc2ccccc12)CC(NCCc1cccnc1)CC3` (centres unmarked) [Compound 79]: the IC50 is 9.57 µM.
As for `O=c1c2c3c(sc2ncn1Cc1ccc2ccccc2c1)CC(NCCc1cccnc1)CC3` (centres unmarked) [Compound 80], the IC50 is 8.68 µM.
For `COc1ccc2ccccc2c1Cn1cnc2sc3c(c2c1=O)CCC(NCCc1ccncc1)C3` (centres unmarked) [Compound 81], the IC50 is 2.75 µM.
In the case of `O=c1c2c3c(sc2ncn1Cc1cccc2ccccc12)CC(NCCc1ccncc1)CC3` (centres unmarked) [Compound 82], the IC50 is 5.79 µM.
For the compound `O=c1c2c3c(sc2ncn1Cc1ccc2ccccc2c1)CC(NCCc1ccncc1)CC3` (centres unmarked) [Compound 83], the concentration for half-maximal inhibition (IC50) is 9.6 µM.
In the case of `O=c1c2c3c(sc2ncn1Cc1cccc2ccccc12)CC(NCc1cncnc1)CC3` (centres unmarked) [Compound 84], the IC50 was 6.45 µM.
On to `O=c1c2c3c(sc2ncn1Cc1ccc2ccccc2c1)CC(NCc1cncnc1)CC3` (centres unmarked) [Compound 85], for which the concentration for half-maximal inhibition (IC50) was 5.3 µM.
In the case of `COc1ccc2ccccc2c1Cn1cnc2sc3c(c2c1=O)CCC(NCC1CCCCC1)C3` (centres unmarked) [Compound 86], the IC50 is 1.65 µM.
Turning to `O=c1c2c3c(sc2ncn1Cc1ccc2ccccc2c1)CC(NCC1CCCCC1)CC3` (centres unmarked) [Compound 87], the IC50 is 5.53 µM.
On to `O=c1c2c3c(sc2ncn1Cc1cccc2cccnc12)CC(NCC1CCCCC1)CC3` (centres unmarked) [Compound 88], for which the IC50 was 2.43 µM.
On to `COc1ccccc1Cn1cnc2sc3c(c2c1=O)CCC(NCC1CCCCC1)C3` (centres unmarked) [Compound 89], for which the IC50 was 9.18 µM.
Regarding `COc1ccc2ccccc2c1Cn1cnc2sc3c(c2c1=O)CCC(NCC1CCCO1)C3` (centres unmarked) [Compound 90], the IC50 was 1.9 µM.
With `O=c1c2c3c(sc2ncn1Cc1cccc2ccccc12)CC(NCC1CCCO1)CC3` (centres unmarked) [Compound 91], the IC50 is 12.5 µM.
Regarding `O=c1c2c3c(sc2ncn1Cc1ccc2ccccc2c1)CC(NCC1CCCO1)CC3` (centres unmarked) [Compound 92], the IC50 was 13.1 µM.
In the case of `COc1ccc2ccccc2c1Cn1cnc2sc3c(c2c1=O)CCC(NCC1CCOC1)C3` (centres unmarked) [Compound 93], the IC50 is 6.03 µM.
In the case of `O=c1c2c3c(sc2ncn1Cc1cccc(-c2ccccc2)c1)CC(NCC1CCOC1)CC3` (centres unmarked) [Compound 94], the IC50 was 2.58 µM.
In the case of `O=c1c2c3c(sc2ncn1Cc1cccc2cccnc12)CC(NCCC1CCCCC1)CC3` (centres unmarked) [Compound 95], the IC50 was 5.85 µM.
Turning to `O=c1c2c3c(sc2ncn1Cc1cccc(-c2ccccc2)c1)CC(NCCC1CCCCC1)CC3` (centres unmarked) [Compound 96], the IC50 is 3.74 µM.
In the case of `COc1ccc2ccccc2c1Cn1cnc2sc3c(c2c1=O)CCC(NC1CCCC1)C3` (centres unmarked) [Compound 97], the IC50 is 1.18 µM.
Turning to `COc1ccc(Cn2cnc3sc4c(c3c2=O)CCC(NC2CCCC2)C4)c2ccccc12` (centres unmarked) [Compound 98], the IC50 is 0.73 µM and < 1 µM.
As for `O=c1c2c3c(sc2ncn1Cc1cccc(-c2ccccc2)c1)CC(NC1CCCC1)CC3` (centres unmarked) [Compound 99], the IC50 is 1.52 µM.
On to `COc1ccc2ccccc2c1Cn1cnc2sc3c(c2c1=O)CCC(NC1CCOCC1)C3` (centres unmarked) [Compound 100], for which the IC50 is 1.11 µM.
Consider `COc1ccc(Cn2cnc3sc4c(c3c2=O)CCC(NC2CCOCC2)C4)c2ccccc12` (centres unmarked) [Compound 101], for which the IC50 is 5.06 µM.
